pIC50: −log10 of the molar value. ≈ marks a conversion by molar mass, not a printed value.
Experiments:
[1] = molecular target: T1, Carnitine O-palmitoyltransferase 2, mitochondrial (Homo sapiens, UniProt P23786); test: (§1) SUPPLEMENTARY: Inhibition of Carnitine palmitoyltransferase 2
T1 sequence (P23786 whole entry): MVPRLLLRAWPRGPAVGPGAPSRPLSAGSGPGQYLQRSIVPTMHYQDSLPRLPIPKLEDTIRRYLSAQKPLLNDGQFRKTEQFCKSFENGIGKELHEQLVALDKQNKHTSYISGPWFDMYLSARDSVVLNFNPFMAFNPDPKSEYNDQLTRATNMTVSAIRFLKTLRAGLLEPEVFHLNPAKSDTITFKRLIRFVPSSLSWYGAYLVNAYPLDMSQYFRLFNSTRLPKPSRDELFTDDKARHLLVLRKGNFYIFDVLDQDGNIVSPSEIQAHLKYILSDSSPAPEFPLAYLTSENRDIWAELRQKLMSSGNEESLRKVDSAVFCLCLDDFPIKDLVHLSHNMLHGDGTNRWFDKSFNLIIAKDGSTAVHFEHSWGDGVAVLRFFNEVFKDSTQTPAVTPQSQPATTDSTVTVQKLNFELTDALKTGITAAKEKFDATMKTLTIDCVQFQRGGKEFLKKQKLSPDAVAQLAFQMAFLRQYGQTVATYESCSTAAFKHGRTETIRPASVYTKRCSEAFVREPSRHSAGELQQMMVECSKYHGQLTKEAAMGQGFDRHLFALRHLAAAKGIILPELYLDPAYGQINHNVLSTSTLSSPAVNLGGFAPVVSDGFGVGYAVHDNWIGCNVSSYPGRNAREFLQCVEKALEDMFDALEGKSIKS

[2] = molecular target: T2, Carnitine O-palmitoyltransferase 2, mitochondrial (Rattus norvegicus, UniProt P18886); test: as §1
T2 sequence (P18886 whole entry): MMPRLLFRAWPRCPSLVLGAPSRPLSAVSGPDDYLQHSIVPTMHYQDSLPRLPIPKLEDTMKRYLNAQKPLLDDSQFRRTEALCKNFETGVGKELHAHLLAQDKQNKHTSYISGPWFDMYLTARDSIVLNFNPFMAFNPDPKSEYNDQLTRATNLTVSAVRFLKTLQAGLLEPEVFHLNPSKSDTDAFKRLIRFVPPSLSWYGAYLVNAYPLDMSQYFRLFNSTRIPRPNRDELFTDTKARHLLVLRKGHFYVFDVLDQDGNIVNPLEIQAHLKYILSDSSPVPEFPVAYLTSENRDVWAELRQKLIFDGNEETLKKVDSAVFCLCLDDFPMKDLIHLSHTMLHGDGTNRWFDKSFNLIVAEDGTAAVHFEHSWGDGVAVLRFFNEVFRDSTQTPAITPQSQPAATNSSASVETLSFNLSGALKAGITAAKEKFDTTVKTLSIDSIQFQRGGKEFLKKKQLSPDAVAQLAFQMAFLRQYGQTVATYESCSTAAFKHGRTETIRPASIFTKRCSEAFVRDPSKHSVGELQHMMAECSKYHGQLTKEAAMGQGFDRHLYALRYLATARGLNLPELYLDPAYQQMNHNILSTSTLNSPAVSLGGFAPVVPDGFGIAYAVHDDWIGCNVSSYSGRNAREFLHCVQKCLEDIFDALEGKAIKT

[3] = molecular target: T3, Carnitine O-palmitoyltransferase 1, liver isoform (Homo sapiens, UniProt P50416); test: (§2) SUPPLEMENTARY: Inhibition of Carnitine palmitoyltransferase 1, liver isoform
T3 sequence (P50416 whole entry): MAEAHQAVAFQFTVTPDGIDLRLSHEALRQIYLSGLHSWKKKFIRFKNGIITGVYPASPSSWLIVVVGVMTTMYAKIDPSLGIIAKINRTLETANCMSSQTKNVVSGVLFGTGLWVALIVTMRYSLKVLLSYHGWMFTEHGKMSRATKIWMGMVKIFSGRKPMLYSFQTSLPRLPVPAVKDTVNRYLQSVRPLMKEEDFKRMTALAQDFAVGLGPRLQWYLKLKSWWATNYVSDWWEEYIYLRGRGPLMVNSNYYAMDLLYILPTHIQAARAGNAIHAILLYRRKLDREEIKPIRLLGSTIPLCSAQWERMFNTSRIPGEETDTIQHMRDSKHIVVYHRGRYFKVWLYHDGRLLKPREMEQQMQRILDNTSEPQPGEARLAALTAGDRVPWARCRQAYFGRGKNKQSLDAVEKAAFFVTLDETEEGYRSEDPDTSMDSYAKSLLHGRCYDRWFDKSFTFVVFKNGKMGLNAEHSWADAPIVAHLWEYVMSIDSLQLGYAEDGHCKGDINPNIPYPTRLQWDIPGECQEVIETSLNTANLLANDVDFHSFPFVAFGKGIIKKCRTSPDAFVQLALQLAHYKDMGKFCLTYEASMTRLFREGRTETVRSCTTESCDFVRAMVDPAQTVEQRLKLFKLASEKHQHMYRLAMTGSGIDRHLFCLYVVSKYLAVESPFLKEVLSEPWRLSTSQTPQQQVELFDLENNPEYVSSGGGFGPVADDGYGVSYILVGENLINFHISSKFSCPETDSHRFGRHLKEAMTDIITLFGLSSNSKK

[4] = molecular target: T4, Carnitine O-palmitoyltransferase 1, liver isoform (Rattus norvegicus, UniProt P32198); test: as §2
T4 sequence (P32198 whole entry): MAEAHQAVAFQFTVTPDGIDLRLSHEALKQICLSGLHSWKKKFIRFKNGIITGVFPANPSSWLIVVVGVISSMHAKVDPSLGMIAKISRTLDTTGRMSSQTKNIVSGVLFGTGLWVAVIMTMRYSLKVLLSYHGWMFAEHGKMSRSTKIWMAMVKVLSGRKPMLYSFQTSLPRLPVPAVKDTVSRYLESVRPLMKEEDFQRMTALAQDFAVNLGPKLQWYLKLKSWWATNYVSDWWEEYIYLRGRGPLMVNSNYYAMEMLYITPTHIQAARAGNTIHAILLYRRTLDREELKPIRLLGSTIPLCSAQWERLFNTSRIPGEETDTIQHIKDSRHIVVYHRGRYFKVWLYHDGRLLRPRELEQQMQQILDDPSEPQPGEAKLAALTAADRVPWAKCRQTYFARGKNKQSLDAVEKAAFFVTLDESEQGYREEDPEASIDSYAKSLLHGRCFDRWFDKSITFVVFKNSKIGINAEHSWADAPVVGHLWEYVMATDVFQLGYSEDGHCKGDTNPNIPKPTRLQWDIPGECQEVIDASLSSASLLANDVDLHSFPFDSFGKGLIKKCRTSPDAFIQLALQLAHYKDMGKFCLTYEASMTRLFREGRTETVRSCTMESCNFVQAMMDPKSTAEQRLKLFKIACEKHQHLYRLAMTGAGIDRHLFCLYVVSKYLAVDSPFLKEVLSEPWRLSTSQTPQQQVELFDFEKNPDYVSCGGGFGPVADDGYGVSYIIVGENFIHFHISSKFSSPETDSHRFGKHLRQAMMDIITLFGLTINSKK

[5] = SUPPLEMENTARY: Lipophilicity (log D) Determination by high-throughput shake-flask; format: physicochemical; details: octanol/water
[6] = SUPPLEMENTARY: PAMPA permeability assay; format: physicochemical; details: read-out: Permeability
[7] = SUPPLEMENTARY: Lyophilisation Solubility Assay (LYSA); format: physicochemical; details: read-out: Kinetic_solubility
[8] = molecular target: T5, Carnitine O-palmitoyltransferase 1, muscle isoform (Homo sapiens, UniProt Q92523); test: SUPPLEMENTARY: Inhibition of Carnitine palmitoyltransferase 1, muscle isoform; set-up: species or system Muscle tissue
T5 sequence (Q92523 whole entry): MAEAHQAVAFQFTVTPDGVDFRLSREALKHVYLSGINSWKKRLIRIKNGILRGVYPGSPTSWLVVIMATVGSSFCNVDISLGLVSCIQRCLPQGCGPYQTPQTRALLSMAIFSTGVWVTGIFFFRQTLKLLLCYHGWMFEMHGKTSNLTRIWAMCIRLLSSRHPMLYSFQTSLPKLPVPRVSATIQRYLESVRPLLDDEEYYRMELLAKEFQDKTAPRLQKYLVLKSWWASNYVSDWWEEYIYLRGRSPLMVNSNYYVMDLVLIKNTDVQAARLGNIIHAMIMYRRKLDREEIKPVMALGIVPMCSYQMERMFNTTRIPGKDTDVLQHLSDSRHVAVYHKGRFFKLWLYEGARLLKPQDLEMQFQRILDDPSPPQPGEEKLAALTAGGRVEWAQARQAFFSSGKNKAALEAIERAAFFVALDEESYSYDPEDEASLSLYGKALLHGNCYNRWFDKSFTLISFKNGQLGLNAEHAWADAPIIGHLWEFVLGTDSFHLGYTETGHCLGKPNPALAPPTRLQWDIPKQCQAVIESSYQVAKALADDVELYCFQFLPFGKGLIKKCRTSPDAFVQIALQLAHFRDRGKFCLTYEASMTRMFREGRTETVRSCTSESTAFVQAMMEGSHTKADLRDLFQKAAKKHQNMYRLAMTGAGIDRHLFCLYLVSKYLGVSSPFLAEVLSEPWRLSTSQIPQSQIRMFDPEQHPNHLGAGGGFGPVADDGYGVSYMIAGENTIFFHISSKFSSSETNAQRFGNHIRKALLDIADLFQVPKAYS

Row | Compound | pIC50 [1] | pIC50 [2] | pIC50 [3] | pIC50 [4] | logD [5] | Papp [6] [×10⁻⁶ cm/s] | solubility kinetic [7] [µg/mL] | pIC50 [8]
1 | O=C(COc1ccccc1)N1CCCC[C@@H]1c1nc(-c2ccc([N+](=O)[O-])o2)no1 | 5.00 | 4.45 | 7.17 | 6.53 | 2.53 | 5.09 | 6 (≈ 15.1 µM) | < 4.00
2 | COc1ccc(Cl)cc1S(=O)(=O)c1cn(CCC(=O)O)c2ccc(C(=O)Nc3ccccc3)cc12 | < 4.00 | < 4.00 | 8.15 | 8.52 | 0.56 | 0.39 | 251 (≈ 489 µM) | 5.04
3 | CCNC(=O)Nc1cccc(-c2n[nH]c([C@H]3CCCCN3C(=O)COc3ccccc3)n2)c1 | 4.24 | 4.20 | 7.28 | 6.09 | 2.84 | 2.23 | 69 (≈ 154 µM) | 4.01
4 | COc1ccc(Cl)cc1CN1C(=O)C(C)(C)c2ccc(C(=O)Nc3nc(CC(=O)O)cs3)cc21 | < 4.00 | < 4.00 | 7.33 | 7.71 | 1.21 | 0.96 | 418 (≈ 836 µM) | 6.27
5 | O=C(COc1ccccc1)N1CCCC[C@@H]1c1noc(-c2ccc(C(F)(F)F)nc2)n1 | 5.18 | 4.15 | 6.70 | 6.70 | 3.38 | 2.21 | 8 (≈ 18.5 µM) | < 4.00
6 | O=C(O)c1cncc(-c2noc([C@H]3CCCCN3C(=O)COc3ccccc3)n2)c1 | 4.02 | < 4.00 | 6.65 | 5.35 | -1.07 | 0.07 | 397 (≈ 972 µM) | < 4.00
7 | COc1ccc(Cl)cc1S(=O)(=O)N1CCOc2ccc(C(=O)Nc3ccccc3)cc21 | < 4.00 | < 4.00 | 7.39 | 7.07 | > 3 | 1.26 | < 1 | < 4.00
8 | O=C(COc1ccccc1)N1CCOC[C@@H]1c1nc(-c2ccc3[nH]cnc3c2)no1 | < 4.00 | < 4.00 | 7.05 | 6.47 | 2.62 | 2.8 | 19 (≈ 46.9 µM) | < 4.00
9 | COc1ccc(Cl)cc1S(=O)(=O)N1CCc2c(C)cc(C(=O)Nc3ccc(C(=O)O)cc3)cc21 | 6.49 | 6.46 | 7.11 | 7.25 | 2.58 | 2.01 | 13 (≈ 26 µM) | 5.26
10 | N#Cc1ccc(-c2nc([C@H]3CCCCN3C(=O)COc3ccccc3)no2)cn1 | 5.14 | 4.10 | 6.78 | 6.61 | 2.54 | 8.44 | 33 (≈ 84.7 µM) | < 4.00
11 | CC(=O)NCc1cccc(-c2nc([C@H]3CCCCN3C(=O)COc3ccccc3)no2)c1 | 4.54 | < 4.00 | 7.00 | 6.51 | 2.64 | 2.98 | 127 (≈ 292 µM) | < 4.00
